From PubChem BioAssay (NCI)
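Five concentrations, 48 hours, 96-well plates. TGI: total growth inhibition.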

Assays:
Assay in all cases: NCI tumour cell line growth inhibition, 48 h
HOP-18 NSCLC = test system: HOP-18 NSCLC
SN12C renal = test system: SN12C renal
SNB-75 CNS = test system: SNB-75 CNS
HT29 colon = test system: HT29 colon
SNB-78 CNS = test system: SNB-78 CNS
CCRF-CEM leukemia = test system: CCRF-CEM leukemia
RPMI-8226 leukemia = test system: RPMI-8226 leukemia
UACC-257 melanoma = test system: UACC-257 melanoma
MCF7 breast = test system: MCF7 breast
XF 498 CNS = test system: XF 498 CNS
DMS 273 small cell lung = test system: DMS 273 small cell lung
EKVX NSCLC = test system: EKVX NSCLC
HCT-116 colon = test system: HCT-116 colon
U251 CNS = test system: U251 CNS
MOLT-4 leukemia = test system: MOLT-4 leukemia
A498 renal = test system: A498 renal
OVCAR-8 ovarian = test system: OVCAR-8 ovarian
SK-MEL-5 melanoma = test system: SK-MEL-5 melanoma
HL-60(TB) leukemia = test system: HL-60(TB) leukemia
HOP-62 NSCLC = test system: HOP-62 NSCLC
HOP-92 NSCLC = test system: HOP-92 NSCLC
DMS 114 small cell lung = test system: DMS 114 small cell lung
NCI-H23 lung = test system: NCI-H23 lung
NCI/ADR-RES ovarian = test system: NCI/ADR-RES ovarian
COLO 205 colon = test system: COLO 205 colon
MALME-3M melanoma = test system: MALME-3M melanoma
UACC-62 melanoma = test system: UACC-62 melanoma
SK-OV-3 ovarian = test system: SK-OV-3 ovarian
SNB-19 CNS = test system: SNB-19 CNS
NCI-H226 lung = test system: NCI-H226 lung
A549 NSCLC = test system: A549 NSCLC
SF-268 CNS = test system: SF-268 CNS
RXF 393 renal = test system: RXF 393 renal
SF-295 CNS = test system: SF-295 CNS
CAKI-1 renal = test system: CAKI-1 renal
DLD-1 colon = test system: DLD-1 colon
IGROV1 ovarian = test system: IGROV1 ovarian
OVCAR-5 ovarian = test system: OVCAR-5 ovarian
NCI-H460 lung = test system: NCI-H460 lung
UO-31 renal = test system: UO-31 renal
HCT-15 colon = test system: HCT-15 colon
SW-620 colon = test system: SW-620 colon
KM20L2 colon = test system: KM20L2 colon
HCC-2998 colon = test system: HCC-2998 colon
SK-MEL-2 melanoma = test system: SK-MEL-2 melanoma
OVCAR-4 ovarian = test system: OVCAR-4 ovarian
LOX IMVI melanoma = test system: LOX IMVI melanoma
SN12K1 renal = test system: SN12K1 renal
SF-539 CNS = test system: SF-539 CNS
OVCAR-3 ovarian = test system: OVCAR-3 ovarian
NCI-H522 lung = test system: NCI-H522 lung
SK-MEL-28 melanoma = test system: SK-MEL-28 melanoma
KM12 colon = test system: KM12 colon
K-562 leukemia = test system: K-562 leukemia
M19-MEL melanoma = test system: M19-MEL melanoma
P388/ADR leukemia = test system: P388/ADR leukemia
P388 leukemia = test system: P388 leukemia

Compound: CN(C)CCN=C1c2ccccc2-c2c(=O)n(CCN(C)C)c(O)c3cccc1c23
- TGI (HOP-18 NSCLC): 0.603 µM
- TGI (SN12C renal): 0.674 µM
- TGI (SNB-75 CNS): 0.487 µM
- TGI (HT29 colon): 0.257 µM
- TGI (SNB-78 CNS): 1.73 µM
- TGI (CCRF-CEM leukemia): 10.5 µM
- TGI (RPMI-8226 leukemia): 12.9 µM
- TGI (UACC-257 melanoma): 1.25 µM
- TGI (MCF7 breast): 0.944 µM
- TGI (XF 498 CNS): 0.922 µM
- TGI (DMS 273 small cell lung): 0.508 µM
- TGI (EKVX NSCLC): 0.987 µM
- TGI (HCT-116 colon): 0.432 µM
- TGI (U251 CNS): 0.752 µM
- TGI (MOLT-4 leukemia): 28 µM
- TGI (A498 renal): 2.19 µM
- TGI (OVCAR-8 ovarian): 0.433 µM
- TGI (SK-MEL-5 melanoma): 1.95 µM
- TGI (HL-60(TB) leukemia): 0.592 µM
- TGI (HOP-62 NSCLC): 4.04 µM
- TGI (HOP-92 NSCLC): 0.563 µM
- TGI (DMS 114 small cell lung): 0.499 µM
- TGI (NCI-H23 lung): 0.258 µM
- TGI (NCI/ADR-RES ovarian): 0.289 µM
- TGI (COLO 205 colon): 0.27 µM
- TGI (MALME-3M melanoma): 1.6 µM
- TGI (UACC-62 melanoma): 0.734 µM
- TGI (SK-OV-3 ovarian): 1.4 µM
- TGI (SNB-19 CNS): 1.73 µM
- TGI (NCI-H226 lung): 3.35 µM
- TGI (A549 NSCLC): 0.461 µM
- TGI (SF-268 CNS): 0.578 µM
- TGI (RXF 393 renal): 0.085 µM
- TGI (SF-295 CNS): 0.605 µM
- TGI (CAKI-1 renal): 2.7 µM
- TGI (DLD-1 colon): 0.217 µM
- TGI (IGROV1 ovarian): 0.616 µM
- TGI (OVCAR-5 ovarian): 0.794 µM
- TGI (NCI-H460 lung): 0.339 µM
- TGI (UO-31 renal): 3.97 µM
- TGI (HCT-15 colon): 0.245 µM
- TGI (SW-620 colon): 0.493 µM
- TGI (KM20L2 colon): 0.783 µM
- TGI (HCC-2998 colon): 0.494 µM
- TGI (SK-MEL-2 melanoma): 0.857 µM
- TGI (OVCAR-4 ovarian): 0.154 µM
- TGI (LOX IMVI melanoma): 0.185 µM
- TGI (SN12K1 renal): 0.851 µM
- TGI (SF-539 CNS): 1.82 µM
- TGI (OVCAR-3 ovarian): 0.689 µM
- TGI (NCI-H522 lung): 0.315 µM
- TGI (SK-MEL-28 melanoma): 0.862 µM
- TGI (KM12 colon): 1.25 µM

Compound: Nc1nc2[nH]c(=O)cnc2c(=O)[nH]1
- TGI (HOP-18 NSCLC): > 5.8 µM
- TGI (SN12C renal): > 125 µM
- TGI (SNB-75 CNS): > 125 µM
- TGI (HT29 colon): > 125 µM
- TGI (SNB-78 CNS): > 125 µM
- TGI (CCRF-CEM leukemia): > 125 µM
- TGI (RPMI-8226 leukemia): > 125 µM
- TGI (UACC-257 melanoma): > 125 µM
- TGI (MCF7 breast): > 125 µM
- TGI (XF 498 CNS): > 125 µM
- TGI (DMS 273 small cell lung): > 125 µM
- TGI (EKVX NSCLC): > 125 µM
- TGI (HCT-116 colon): > 125 µM
- TGI (U251 CNS): > 125 µM
- TGI (MOLT-4 leukemia): > 125 µM
- TGI (A498 renal): > 125 µM
- TGI (OVCAR-8 ovarian): > 125 µM
- TGI (SK-MEL-5 melanoma): > 125 µM
- TGI (HL-60(TB) leukemia): > 125 µM
- TGI (HOP-62 NSCLC): > 125 µM
- TGI (HOP-92 NSCLC): > 125 µM
- TGI (DMS 114 small cell lung): > 125 µM
- TGI (NCI-H23 lung): > 125 µM
- TGI (NCI/ADR-RES ovarian): > 125 µM
- TGI (K-562 leukemia): > 125 µM
- TGI (COLO 205 colon): > 125 µM
- TGI (MALME-3M melanoma): > 125 µM
- TGI (M19-MEL melanoma): > 85.2 µM
- TGI (P388/ADR leukemia): > 125 µM
- TGI (UACC-62 melanoma): > 125 µM
- TGI (SK-OV-3 ovarian): > 125 µM
- TGI (SNB-19 CNS): > 125 µM
- TGI (NCI-H226 lung): > 125 µM
- TGI (A549 NSCLC): > 125 µM
- TGI (SF-268 CNS): > 125 µM
- TGI (RXF 393 renal): > 125 µM
- TGI (SF-295 CNS): > 125 µM
- TGI (CAKI-1 renal): > 125 µM
- TGI (P388 leukemia): > 125 µM
- TGI (DLD-1 colon): > 125 µM
- TGI (IGROV1 ovarian): > 125 µM
- TGI (OVCAR-5 ovarian): > 107 µM
- TGI (NCI-H460 lung): > 125 µM
- TGI (UO-31 renal): > 125 µM
- TGI (HCT-15 colon): > 78.9 µM
- TGI (SW-620 colon): > 125 µM
- TGI (KM20L2 colon): > 91.4 µM
- TGI (HCC-2998 colon): > 125 µM
- TGI (SK-MEL-2 melanoma): > 125 µM
- TGI (OVCAR-4 ovarian): > 125 µM
- TGI (LOX IMVI melanoma): > 125 µM
- TGI (SN12K1 renal): > 125 µM
- TGI (SF-539 CNS): > 125 µM
- TGI (OVCAR-3 ovarian): > 125 µM
- TGI (NCI-H522 lung): > 19.8 µM
- TGI (SK-MEL-28 melanoma): > 125 µM
- TGI (KM12 colon): > 125 µM
